Values of other authors as cited in patent US11013844B2, “Treatment device for plasma virus inactivation” (City of Hope, priority 2014, dated 2021).

Settings: within 6 days

methylene blue drained through urine: 74%
part drained through urine in the original form (the other is white methylene blue): 22%
SMILES: CN(C)c1ccc2nc3ccc(N(C)C)cc3[s+]c2c1.[Cl-] [methylene blue, 3,7-bis(dimethylamino)phenothiazin-5-ium chloride]
